# Source: PMC10916402, “Meropenem-ANT3310, a unique β-lactam-β-lactamase inhibitor combination with expanded antibacterial spectrum against Gram-negative pathogens including carbapenem-resistant Acinetobacter baumannii” (Antimicrobial Agents and Chemotherapy, 2024)
# Like-named read-outs stand apart in the source and are kept apart here.
# What was measured:
# [1] = test system: A. baumannii clinical isolates; test: Broth microdilution MIC, A. baumannii clinical isolates; assay type: cell-based, Acinetobacter baumannii; conditions: for MIC50 / MIC90: Acinetobacter baumannii; for MIC50: read-out: MIC50; for MIC90: read-out: MIC90
# Experimental: (§1) All isolates were randomly selected from the frozen culture collection of IHMA collected in 2018 and 2019. Matrix-assisted laser desorption ionization-time of flight mass spectrometry was used to confirm the identity of the organisms tested (Bruker Daltonics, Bremen, Germany).
# (§2) MICs for all antimicrobial agents were determined at IHMA by broth microdilution in accordance with both CLSI ([17]) and EUCAST ([18]) guidelines. Microtiter panels were prepared by IHMA and stored at −70°C in cation-adjusted Mueller Hinton broth (CAMHB) (Becton Dickinson). Iron-depleted CAMHB was used to test cefiderocol. Panels containing ANT3310 were prepared fresh on the day of testing. […] MIC values corresponded to the first well with no visible growth. Quality control testing was performed on each day of testing with E. coli ATCC 25922, P. aeruginosa ATCC 27853, K. pneumoniae ATCC 700603 and BAA 1705, and A. baumannii NCTC 13304. MICs were interpreted using 2023 CLSI ([17]) and EUCAST ([18]) BPs.
# [2] = test system: KPC-producing Enterobacterales (KPC-CRE); test: organism not typed; assay type: cell-based
# Experimental: as §1, §2
# [3] = test system: OXA-producing Enterobacterales (OXA-CRE); test: organism not typed; assay type: cell-based
# Experimental: as §1, §2
# [4] = test system: carbapenem-resistant Acinetobacter baumannii (CRAB) clinical isolates; test: Broth microdilution MIC, CRAB isolates; assay type: cell-based; conditions: 2018 Global collection, N 363; for MIC50 / MIC90: Acinetobacter baumannii; for MIC50: read-out: MIC50; for MIC90: read-out: MIC90
# Experimental: as §1, §2
# [5] = 2018 Global collection, All A. baumannii, N 500
# [6] = A. baumannii, one or both of the 2018/2019 collections
# [7] = 2018 Global collection, All A. baumannii, N 500, EUCAST BP
# [8] = 180 KPC-producing Enterobacterales, EUCAST BP
# [9] = 252 OXA-producing Enterobacterales, EUCAST BP
compound,measurement,setting,value
"CN(C)[C@@H]1C(O)=C(C(N)=O)C(=O)[C@@]2(O)C(O)=C3C(=O)c4c(O)c(NC(=O)CN5CCCC5)cc(F)c4C[C@H]3C[C@@H]12 [Eravacycline, eravacycline]",Number of isolates inhibited at MIC of 0.25 µg/mL,[1]; [5],66
same,Number of isolates inhibited at MIC of 0.5 µg/mL,[1]; [5],83
same,Number of isolates inhibited at MIC of 1 µg/mL,[1]; [5],194
same,Number of isolates inhibited at MIC of 2 µg/mL,[1]; [5],55
same,Number of isolates inhibited at MIC of 4 µg/mL,[1]; [5],3
same,Number of isolates inhibited at MIC of ≤0.125 µg/mL,[1]; [5],99
same,MIC50,[1]; [5],1 µg/mL
same,MIC90,[1]; [5],2 µg/mL
same,MIC90,[1]; [6],2 µg/mL
same,MIC50,[2],0.5 µg/mL
same,MIC90,[2],2 µg/mL
same,MIC50,[3],1 µg/mL
same,MIC90,[3],2 µg/mL
same,Number of isolates inhibited at MIC of 0.25 µg/mL,[4]; CRAB (MEM MICs >4 µg/mL),43
same,Number of isolates inhibited at MIC of 0.5 µg/mL,[4]; CRAB (MEM MICs >4 µg/mL),73
same,Number of isolates inhibited at MIC of 1 µg/mL,[4]; CRAB (MEM MICs >4 µg/mL),186
same,Number of isolates inhibited at MIC of 2 µg/mL,[4]; CRAB (MEM MICs >4 µg/mL),53
same,Number of isolates inhibited at MIC of 4 µg/mL,[4]; CRAB (MEM MICs >4 µg/mL),3
same,Number of isolates inhibited at MIC of ≤0.125 µg/mL,[4]; CRAB (MEM MICs >4 µg/mL),5
same,MIC50,[4]; CRAB (MEM MICs >4 µg/mL),1 µg/mL
same,MIC90,[4]; CRAB (MEM MICs >4 µg/mL),2 µg/mL
"NCC[C@H](O)C(=O)N[C@@H]1C[C@H](N)[C@@H](O[C@H]2O[C@H](CN)[C@@H](O)[C@H](O)[C@H]2O)[C@H](O)[C@H]1O[C@H]1O[C@H](CO)[C@@H](O)[C@H](N)[C@H]1O [Amikacin, amikacin]",Number of isolates inhibited at MIC of 0.5 µg/mL,[1]; [5],2
same,Number of isolates inhibited at MIC of 1 µg/mL,[1]; [5],42
same,Number of isolates inhibited at MIC of 2 µg/mL,[1]; [5],96
same,Number of isolates inhibited at MIC of 4 µg/mL,[1]; [5],33
same,Number of isolates inhibited at MIC of 8 µg/mL,[1]; [5],12
same,Number of isolates inhibited at MIC of 16 µg/mL,[1]; [5],11
same,Number of isolates inhibited at MIC of 32 µg/mL,[1]; [5],13
same,Number of isolates inhibited at MIC of >32 µg/mL,[1]; [5],291
same,CLSI % Res,"[1]; 2018 Global collection, All A. baumannii, N 500, CLSI BP, for MEM-ANT3310 % at ≥16 µg/mL",58.2%
same,CLSI % Sus,"[1]; 2018 Global collection, All A. baumannii, N 500, CLSI BP, for MEM-ANT3310 % inhibited at ≤8 µg/mL",39.2%
same,EUCAST % Res,[1]; [7],63%
same,EUCAST % Sus,[1]; [7],37%
same,MIC50,[1]; [5],> 32 µg/mL
same,MIC90,[1]; [5],> 32 µg/mL
same,MIC90,[1]; [6],≥ 32 µg/mL
same,MIC50,[2],16 µg/mL
same,MIC90,[2],64 µg/mL
same,CLSI % Res,"[2]; 180 KPC-producing Enterobacterales, CLSI BP, for MEM-ANT3310 % at ≥16 µg/mL",11.7%
same,CLSI % Sus,"[2]; 180 KPC-producing Enterobacterales, CLSI BP, for MEM-ANT3310 % inhibited at ≤8 µg/mL",57.8%
same,EUCAST % Res,[2]; [8],54.4%
same,EUCAST % Sus,[2]; [8],45.6%
same,MIC50,[3],16 µg/mL
same,MIC90,[3],> 64 µg/mL
same,CLSI % Res,"[3]; 252 OXA-producing Enterobacterales, CLSI BP, for MEM-ANT3310 % at ≥16 µg/mL",32.1%
same,CLSI % Sus,"[3]; 252 OXA-producing Enterobacterales, CLSI BP, for MEM-ANT3310 % inhibited at ≤8 µg/mL",59.5%
same,EUCAST % Res,[3]; [9],52.0%
same,EUCAST % Sus,[3]; [9],48.0%
same,Number of isolates inhibited at MIC of 0.5 µg/mL,[4]; CRAB (MEM MICs >4 µg/mL),1
same,Number of isolates inhibited at MIC of 1 µg/mL,[4]; CRAB (MEM MICs >4 µg/mL),9
same,Number of isolates inhibited at MIC of 2 µg/mL,[4]; CRAB (MEM MICs >4 µg/mL),25
same,Number of isolates inhibited at MIC of 4 µg/mL,[4]; CRAB (MEM MICs >4 µg/mL),20
same,Number of isolates inhibited at MIC of 8 µg/mL,[4]; CRAB (MEM MICs >4 µg/mL),5
same,Number of isolates inhibited at MIC of 16 µg/mL,[4]; CRAB (MEM MICs >4 µg/mL),10
same,Number of isolates inhibited at MIC of 32 µg/mL,[4]; CRAB (MEM MICs >4 µg/mL),11
same,Number of isolates inhibited at MIC of >32 µg/mL,[4]; CRAB (MEM MICs >4 µg/mL),282
same,CLSI % Res,"[4]; CRAB, CLSI BP, for MEM-ANT3310 % at ≥16 µg/mL",77.7%
same,CLSI % Sus,"[4]; CRAB, CLSI BP, for MEM-ANT3310 % inhibited at ≤8 µg/mL",19.3%
same,EUCAST % Res,"[4]; CRAB, EUCAST BP",83.5%
same,EUCAST % Sus,"[4]; CRAB, EUCAST BP",16.5%
same,MIC50,[4]; CRAB (MEM MICs >4 µg/mL),> 32 µg/mL
same,MIC90,[4]; CRAB (MEM MICs >4 µg/mL),> 32 µg/mL
